Residue numbers refer to the chain shown, from its start.
Key:
Assay in all cases: GC-MS of volatile products (SPME)
Format in all cases: biochemical
Conditions in all cases: Tris-HCl pH 7.0, MgSO4, DTT, 10% glycerol, 30 C, 4 h; crude protein extract
ASS1 = molecular target: T1, ASS1 (Aquilaria sinensis, UniProt K9MQ67)
T1 construct: full-length ORF (1644 nt, 547 residues), pET-28a XhoI/BamHI, His-tag fusion, E. coli BL21(DE3); crude protein extract assayed

ASS3 = molecular target: T2, ASS3 (Aquilaria sinensis, UniProt K9MPP8)
T2 construct: full-length ORF (1644 nt, 547 residues), pET-28a fusion protein, E. coli; crude protein extract assayed
T2 sequence (K9MPP8 1-547): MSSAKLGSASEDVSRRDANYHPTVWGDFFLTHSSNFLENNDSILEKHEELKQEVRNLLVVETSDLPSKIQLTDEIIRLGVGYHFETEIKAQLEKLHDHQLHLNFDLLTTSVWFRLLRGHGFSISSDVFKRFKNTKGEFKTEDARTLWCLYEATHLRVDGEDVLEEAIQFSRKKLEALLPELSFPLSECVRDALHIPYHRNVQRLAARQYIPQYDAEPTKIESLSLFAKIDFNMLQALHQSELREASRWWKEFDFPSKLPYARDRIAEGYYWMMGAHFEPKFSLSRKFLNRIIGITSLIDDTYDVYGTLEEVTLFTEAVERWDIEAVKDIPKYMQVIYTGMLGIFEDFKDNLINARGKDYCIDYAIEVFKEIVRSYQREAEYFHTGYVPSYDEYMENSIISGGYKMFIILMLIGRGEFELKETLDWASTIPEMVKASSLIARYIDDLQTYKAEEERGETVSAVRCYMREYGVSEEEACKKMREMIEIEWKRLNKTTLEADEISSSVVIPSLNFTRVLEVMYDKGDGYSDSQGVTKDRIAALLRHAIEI

ASS2 = molecular target: T3, ASS2 (Aquilaria sinensis, UniProt K9MNV6)
T3 construct: full-length ORF (1644 nt, 547 residues), pET-28a fusion protein, E. coli; crude protein extract assayed
T3 sequence (K9MNV6 1-547): T2 sequence (K9MPP8 1-547) with E454K, R481K

T1 sequence (K9MQ67 entry or part of it): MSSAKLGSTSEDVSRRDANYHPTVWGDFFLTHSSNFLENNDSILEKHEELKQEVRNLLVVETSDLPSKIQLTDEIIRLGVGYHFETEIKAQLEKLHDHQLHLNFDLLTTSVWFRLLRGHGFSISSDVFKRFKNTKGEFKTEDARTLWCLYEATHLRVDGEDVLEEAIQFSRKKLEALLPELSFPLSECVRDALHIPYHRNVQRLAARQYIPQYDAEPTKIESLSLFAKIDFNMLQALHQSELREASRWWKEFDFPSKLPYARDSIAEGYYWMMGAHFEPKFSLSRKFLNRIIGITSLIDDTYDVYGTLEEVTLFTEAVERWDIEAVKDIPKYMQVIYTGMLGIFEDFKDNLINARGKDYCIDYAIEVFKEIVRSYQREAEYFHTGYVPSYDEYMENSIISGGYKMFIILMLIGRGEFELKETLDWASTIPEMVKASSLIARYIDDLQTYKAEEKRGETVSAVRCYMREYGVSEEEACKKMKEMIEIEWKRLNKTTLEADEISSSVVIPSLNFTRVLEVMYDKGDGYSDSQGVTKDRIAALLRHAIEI

SMILES: CC(C)=CCC/C(C)=C/CC/C(C)=C/COP(=O)(O)OP(=O)(O)O [FPP]
- GC-MS of volatile products (SPME) (ASS1): ASS1-3 did not accept geranyl diphosphate or geranylgeranyl diphosphate as a substrate, converting only FPP
- GC-MS of volatile products (SPME) (ASS3): ASS1-3 did not accept geranyl diphosphate or geranylgeranyl diphosphate as a substrate, converting only FPP
- GC-MS of volatile products (SPME) (ASS2): ASS1-3 did not accept geranyl diphosphate or geranylgeranyl diphosphate as a substrate, converting only FPP

Source: article PMC3635961, “Identification of genes related to agarwood formation: transcriptome analysis of healthy and wounded tissues of Aquilaria sinensis” (BMC Genomics, 2013)
